Results taken from the NIST ThermoML archive (doi:10.1021/je700260f).
Numbers after ± are expanded uncertainties.

Conditions: 323.14 K, Liquid, Vibrating tube method

FC(C(F)(F)F)C(F)(F)F [1,1,1,2,3,3,3-heptafluoropropane]
Conditions	mass density [kg/m3]
18469 kPa	1413.4 ± 1.6
18489 kPa	1413.6 ± 1.6
18518 kPa	1413.8 ± 1.6
18639 kPa	1414.5 ± 1.6
18664 kPa	1414.6 ± 1.6
18688 kPa	1414.7 ± 1.6
18713 kPa	1414.8 ± 1.6
18738 kPa	1414.8 ± 1.6
18764 kPa	1415.1 ± 1.6
18787 kPa	1415.1 ± 1.6
18806 kPa	1415.3 ± 1.6
18836 kPa	1415.4 ± 1.6
19030 kPa	1416.6 ± 1.6
19049 kPa	1416.5 ± 1.6
19073 kPa	1416.7 ± 1.6
19091 kPa	1416.8 ± 1.6
19111 kPa	1416.8 ± 1.6
19136 kPa	1416.9 ± 1.6
19224 kPa	1417.4 ± 1.6
19244 kPa	1417.5 ± 1.6
19276 kPa	1417.6 ± 1.6
19303 kPa	1417.9 ± 1.6
19335 kPa	1418 ± 1.6
19359 kPa	1418.1 ± 1.6
19382 kPa	1418.2 ± 1.6
19410 kPa	1418.4 ± 1.6
19431 kPa	1418.5 ± 1.6
19452 kPa	1418.4 ± 1.6
19473 kPa	1418.7 ± 1.6
19509 kPa	1418.8 ± 1.6
19534 kPa	1419.1 ± 1.6
19563 kPa	1419.2 ± 1.6
19591 kPa	1419.1 ± 1.6
19608 kPa	1419.2 ± 1.6
19637 kPa	1419.5 ± 1.6
19667 kPa	1419.6 ± 1.6
19693 kPa	1419.8 ± 1.6
19721 kPa	1419.9 ± 1.6
19746 kPa	1419.9 ± 1.6
19771 kPa	1420 ± 1.6
19795 kPa	1420.5 ± 1.6
19830 kPa	1420.4 ± 1.6
19857 kPa	1420.6 ± 1.6
19893 kPa	1420.7 ± 1.6
19917 kPa	1420.9 ± 1.6
19942 kPa	1421.1 ± 1.6
19968 kPa	1421.2 ± 1.6
19996 kPa	1421.3 ± 1.6
20014 kPa	1421.4 ± 1.6
20047 kPa	1421.4 ± 1.6
20075 kPa	1421.5 ± 1.6
20101 kPa	1421.8 ± 1.6
20124 kPa	1421.9 ± 1.6
20452 kPa	1423.5 ± 1.6
20511 kPa	1423.8 ± 1.6
20538 kPa	1423.8 ± 1.6
20571 kPa	1424.1 ± 1.6
20600 kPa	1424.3 ± 1.6
20632 kPa	1424.4 ± 1.6
20657 kPa	1424.6 ± 1.6
20681 kPa	1424.6 ± 1.6
20715 kPa	1424.8 ± 1.6
20735 kPa	1424.9 ± 1.6
20759 kPa	1425 ± 1.6
20780 kPa	1425.1 ± 1.6
20814 kPa	1425.2 ± 1.6
20837 kPa	1425.4 ± 1.6
20864 kPa	1425.5 ± 1.6
20891 kPa	1425.6 ± 1.6
20919 kPa	1425.8 ± 1.6
20943 kPa	1425.8 ± 1.6
20963 kPa	1426 ± 1.6
20994 kPa	1426.2 ± 1.6
21021 kPa	1426.3 ± 1.6
21041 kPa	1426.4 ± 1.6
21069 kPa	1426.5 ± 1.6
21100 kPa	1426.5 ± 1.6
21124 kPa	1426.7 ± 1.6
21151 kPa	1426.8 ± 1.6
21174 kPa	1427 ± 1.6
21195 kPa	1427.2 ± 1.6
21219 kPa	1427.1 ± 1.6
21243 kPa	1427.2 ± 1.6
21271 kPa	1427.4 ± 1.6
21296 kPa	1427.5 ± 1.6
21318 kPa	1427.7 ± 1.6
21353 kPa	1427.8 ± 1.6
21376 kPa	1428.1 ± 1.6
21404 kPa	1428.1 ± 1.6
21424 kPa	1428.1 ± 1.6
21456 kPa	1428.3 ± 1.6
21478 kPa	1428.4 ± 1.6
21511 kPa	1428.6 ± 1.6
21546 kPa	1428.8 ± 1.6
21572 kPa	1428.9 ± 1.6
21597 kPa	1429 ± 1.6
21630 kPa	1429.1 ± 1.6
21660 kPa	1429.3 ± 1.6
21684 kPa	1429.4 ± 1.6
21712 kPa	1429.4 ± 1.6
21734 kPa	1429.6 ± 1.6
22001 kPa	1430.9 ± 1.6
22031 kPa	1431 ± 1.6
